Laboratory results reported in patent US20110269790A1, “NOVEL THIENOPYRIDINES AS PHARMACOLOGICALLY ACTIVE AGENTS” (priority 2009, published 2011).
Converted amounts (≈) assume the structure as drawn. “And” between values parts separate entries of the source, which are not always exact repeats. Equal entries are not always repeated.

Assays:
[1] = system: Wistar rats; assay: Carrageenan induced paw edema model; assay type: in vivo, rat; conditions: for % Inhibition / Percentage Swelling (50 mg/kg) / Percentage Swelling (100 mg/kg) / Percentage Swelling (200 mg/kg): dose response study, n=6; for change in vivo at 100 mg/kg / inhibition in vivo at 100 mg/kg: Rattus norvegicus; for change in vivo at 100 mg/kg: read-out: % Increase in Paw Volume; for inhibition in vivo at 100 mg/kg: read-out: % Inhibition (paw volume)
[2] = system: TNF-α; assay: TNF-α in paw tissue, collagen induced arthritis; assay type: in vivo, rat; conditions: collagen induced study, day 24, 100 mg/kg/day
Source text: It is believed that these proinflammatory cytokines help to propagate a local or systemic inflammatory process, and to induce biosynthesis and secretion of metalloproteinases (MMPs) and osteoclasts that critically contribute to degradation of extracellular matrix and erosion of bone respectively (Burger et al., 1998; Gravallese and Goldring, 2000; Smolen and Steiner, 2003).

[3] = system: crude intestinal α-glucosidase; assay: In-vitro mammalian (rat intestinal) α-glucosidase inhibition assay; assay type: biochemical; conditions: for Mammalian α Glucosidase Inhibition (Mean ± S.E): highest concentration 5 mg/ml; for IC50: mammalian α-glucosidase, dose response study
Method in brief: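 p-Nitrophenol release (405 nm) from 5 mM p-nitrophenyl glucoside, read 5 min after substrate addition following 5 min sample–enzyme preincubation in pH 6.8 phosphate buffer. Enzymes: baker's yeast α-glucosidase (0.76 U/ml) and sonicated rat intestinal acetone powder supernatant. Blank-corrected inhibition vs DMSO; IC50 by log regression.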

[4] = system: mice; assay: Adenosine mediated bronchoconstriction and lung inflammation in an allergic mouse model; assay type: in vivo; parameters: Total count: unit not given here; conditions: BAL fluid cells; 100 mg/kg oral
Method in brief: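 Male mice sensitized i.p. with ragweed (days 1, 6), challenged with 0.5% ragweed aerosol twice daily for 3 days; 24 h later dosed orally (acacia suspension; theophylline 100 mg/kg), then challenged with adenosine (24 mg/ml) 2 h post-dose. Respiration recorded by kymograph under pentobarbitone; BAL total and differential cell counts.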

[5] = biological target: T1, yeast α-glucosidase (Saccharomyces cerevisiae, UniProt P53341); assay: In-vitro yeast α-glucosidase inhibition assay; assay type: biochemical, bakers yeast
T1 construct: α-Glucosidase [(EC 3.2.1.20) Type I: from bakers yeast]
T1 sequence (P53341 whole entry): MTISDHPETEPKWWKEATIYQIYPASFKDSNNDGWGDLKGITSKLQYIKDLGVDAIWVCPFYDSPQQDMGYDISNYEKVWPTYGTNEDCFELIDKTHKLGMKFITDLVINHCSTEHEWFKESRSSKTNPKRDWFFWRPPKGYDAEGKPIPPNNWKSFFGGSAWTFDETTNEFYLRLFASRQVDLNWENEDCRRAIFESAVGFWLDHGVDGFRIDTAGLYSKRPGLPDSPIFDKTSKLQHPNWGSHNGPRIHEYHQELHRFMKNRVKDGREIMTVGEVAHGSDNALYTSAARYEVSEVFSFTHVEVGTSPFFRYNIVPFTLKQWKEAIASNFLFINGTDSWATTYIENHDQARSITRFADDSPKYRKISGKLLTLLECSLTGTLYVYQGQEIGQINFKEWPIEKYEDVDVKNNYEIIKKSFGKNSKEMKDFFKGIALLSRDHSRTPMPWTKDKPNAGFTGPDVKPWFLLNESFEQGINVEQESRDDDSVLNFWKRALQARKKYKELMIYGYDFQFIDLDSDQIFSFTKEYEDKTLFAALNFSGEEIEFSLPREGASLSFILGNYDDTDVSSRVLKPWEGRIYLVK
Source text: Chemicals: α-Glucosidase [(EC 3.2.1.20) Type I: from bakers yeast], rat intestinal acetone powder (as a source of crude intestinal α-glucosidase), α-amylase [EC 3.2.1.1) Type VI B: from porcine pancreas], p-nitrophenyl α-D-glucopyranoside, 3,5-dinitro salicylic acid, soluble potato starch and 1-deoxyrojirimycine, were purchased from Sigma Chemical Co., St Louis, Mo., USA. Other chemicals of analytical grade were procured from indigenous manufacturers.
In-vitro a-Glucosidase Inhibition Assay: Yeast and intestinal a-glucosidase inhibitory activities were determined as per reported methods (Babu et al., 2004; Mc Dougall et al., 2005). Rat intestinal acetone powder in normal saline (100% w/v) was sonicated properly and the supernatant was used as a source of crude intestinal a-glucosidase after centrifugation. In brief, 20 μl, of test samples (100 mg/ml DMSO solution) were reconstituted in 100 μl of 100 mM-Phosphate buffer (pH 6.8) in a 96-well microplate and incubated with 50 μl yeast a-glucosidase (0.76 μ/ml in same buffer) or crude intestinal a-glucosidase for 5 min before 50-μl substrate (5 mM, […] prepared in same buffer) was added. Release of p-nitrophenyol was measured at 405 nm spectrophotometrically (Spectra Mas Plus 384, Molecular Device corporation, Sunnyvale, Calif., USA) 5 min after incubation with substrate, individual blank for test samples were prepared to correct background absorbance where the substrate was replaced with 50 μl of buffer. The control sample contained 20 μl DMSO in place of test samples. The percentage of enzyme inhibition was calculated as (A−B/A)×100 where A is represents the absorbance of the control without test samples, and B represents the absorbance in the presence of test samples. […] The IC50 values were calculated by applying logarithmic regression analysis from the mean inhibitory values.

[6] = test compounds 100 mg/kg oral, Indomethacin 10 mg/kg oral, 3 hrs after Carrageenan

SMILES: Cc1sc2nc3c(c(N)c2c1C)CCCCC3 [BN-4, 2,3-dimethyl-6,7,8,9-tetrahydro-5H-cyclohepta[b]thieno[3,2-e]pyridin-4-amine]
- % Inhibition ([1]; 50 mg/kg oral): 23.93 ± 2.96%
- Percentage Swelling (50 mg/kg) ([1]; 50 mg/kg oral): 73.27 ± 4.47 %
- % Inhibition ([1]; 100 mg/kg oral): 35.68 ± 3.77%
- Percentage Swelling (100 mg/kg) ([1]; 100 mg/kg oral): 64.42 ± 3.97 %
- % Inhibition ([1]; 200 mg/kg oral): 53.2% and 53.2 ± 3.03%
- Percentage Swelling (200 mg/kg) ([1]; 200 mg/kg oral): 44.23 ± 3.34 %
- change in vivo at 100 mg/kg [1, 6]: 68.1 ± 3.41%
- inhibition in vivo at 100 mg/kg [1, 6]: 41.8 ± 3.77%
- Inhibition of TNF-α in paw tissues [2]: more significant inhibition (p<0.01)
- Mammalian α-glucosidase inhibitory activity (in words) [3]: moderate inhibitory activity
- Mammalian α Glucosidase Inhibition (Mean ± S.E) [3]: 38.37 ± 1.0%
- Differential count (%) Lymphocytes [4]: 80%
- Differential count (%) Monocytes [4]: 20%
- Total count [4]: 9

SMILES: Nc1c2c(nc3sc4c(c13)CCC4)CCCC2 [BN-14, 2,3,6,7,8,9-Hexahydro-1H-cyclopenta[4,5]thieno[2,3-b]quinolin-10-amine]
- Yeast α-glucosidase enzyme inhibitory activity (in words) [5]: strong significant inhibitory activity
- inhibition at 39.063 µg/mL ([5]; yeast α-glucosidase, 0.039063 mg/ml, read-out: % Inhibition (Mean ± S.E)): 19.6%
- inhibition at 78.125 µg/mL ([5]; yeast α-glucosidase, 0.078125 mg/ml, read-out: % Inhibition (Mean ± S.E)): 25.84 ± 0.13%
- inhibition at 156.25 µg/mL ([5]; yeast α-glucosidase, 0.15625 mg/ml, read-out: % Inhibition (Mean ± S.E)): 33.31 ± 0.04%
- inhibition at 312.5 µg/mL ([5]; yeast α-glucosidase, 0.3125 mg/ml, read-out: % Inhibition (Mean ± S.E)): 42.8 ± 1.38%
- inhibition at 625 µg/mL ([5]; yeast α-glucosidase, 0.625 mg/ml, read-out: % Inhibition (Mean ± S.E)): 50.3 ± 3.39%
- inhibition at 1250 µg/mL ([5]; yeast α-glucosidase, 1.25 mg/ml, read-out: % Inhibition (Mean ± S.E)): 63.8 ± 1.71%
- inhibition at 2500 µg/mL ([5]; yeast α-glucosidase, 2.5 mg/ml, read-out: % Inhibition (Mean ± S.E)): 67.8 ± 1.18%
- inhibition at 5000 µg/mL ([5]; yeast α-glucosidase, 5 mg/ml, read-out: % Inhibition (Mean ± S.E)): 72.2 ± 1.87%
- % Inhibition ([1]; 50 mg/kg oral): 19.80 ± 2.24%
- Percentage Swelling (50 mg/kg) ([1]; 50 mg/kg oral): 72.34 ± 1.73 %
- % Inhibition ([1]; 100 mg/kg oral): 33.47 ± 6.70%
- Percentage Swelling (100 mg/kg) ([1]; 100 mg/kg oral): 71.30 ± 3.72 %
- % Inhibition ([1]; 200 mg/kg oral): 56.45% and 56.45 ± 3.12%
- Percentage Swelling (200 mg/kg) ([1]; 200 mg/kg oral): 41.78 ± 3.31 %
- inhibition in vivo at 100 mg/kg [1, 6]: 33.5 ± 8.35%
- Inhibition of TNF-α in paw tissues [2]: more significant inhibition (p<0.01)
- Mammalian α-glucosidase inhibitory activity (in words) [3]: significant inhibitory activity
- Mammalian α-glucosidase inhibition (Mean ± S.E) ([3]; 0.039063 mg/ml): 7.79 ± 3.11%
- Mammalian α-glucosidase inhibition (Mean ± S.E) ([3]; 0.078125 mg/ml): 20.75 ± 2.19%
- Mammalian α-glucosidase inhibition (Mean ± S.E) ([3]; 0.15625 mg/ml): 26.76 ± 1.37%
- Mammalian α-glucosidase inhibition (Mean ± S.E) ([3]; 0.3125 mg/ml): 34.49 ± 1.19%
- Mammalian α-glucosidase inhibition (Mean ± S.E) ([3]; 0.625 mg/ml): 40.62 ± 0.63%
- Mammalian α-glucosidase inhibition (Mean ± S.E) ([3]; 1.25 mg/ml): 51.56 ± 0.74%
- Mammalian α-glucosidase inhibition (Mean ± S.E) ([3]; 2.5 mg/ml): 54.74 ± 1.01%
- Mammalian α-glucosidase inhibition (Mean ± S.E) ([3]; 5 mg/ml): 58.37 ± 2.20%
- Mammalian α Glucosidase Inhibition (Mean ± S.E) [3]: 58.37%
- IC50 [3]: 1560 µg/mL (≈ 6.38 mM)
- Differential count (%) Eosinophils [4]: 15%
- Differential count (%) Lymphocytes [4]: 80%
- Differential count (%) Monocytes [4]: 13.5%
- Total count [4]: 13.5

SMILES: Nc1c2c(nc3sc4c(c13)CCC4)CCCCC2 [BN-16, 1,2,3,6,7,8,9,10-Octahydrocyclohepta[b]cyclopenta[4,5]thieno[3,2-e]pyridine-11-amine]
- % Inhibition ([1]; 50 mg/kg oral): 20.47 ± 1.61%
- Percentage Swelling (50 mg/kg) ([1]; 50 mg/kg oral): 73.18 ± 2.41 %
- % Inhibition ([1]; 100 mg/kg oral): 44.90 ± 5.86%
- Percentage Swelling (100 mg/kg) ([1]; 100 mg/kg oral): 61.09 ± 5.86 %
- % Inhibition ([1]; 200 mg/kg oral): 56.0 ± 2.87%
- Percentage Swelling (200 mg/kg) ([1]; 200 mg/kg oral): 45.60 ± 5.30 %
- % Inhibition ([1]; 200 mg/kg oral, listed as B-16): 57.53%
- change in vivo at 100 mg/kg [1, 6]: 61.1 ± 19.2%
- inhibition in vivo at 100 mg/kg [1, 6]: 44.9 ± 5.86%
- Inhibition of TNF-α in paw tissues [2]: moderate inhibition (p<0.05)
- Mammalian α Glucosidase Inhibition (Mean ± S.E) [3]: 4.46 ± 1.77%
- Differential count (%) Eosinophils [4]: 12%
- Differential count (%) Lymphocytes [4]: 90%
- Differential count (%) Monocytes [4]: 15%
- Total count [4]: 8

SMILES: Nc1c2c(nc3sc4c(c13)CCC4)CCCCCC2 [BN-17, 2,3,6,7,8,9,10,11-Octahydro-1H-cycloocta [b]cyclopenta[4,5]thieno[3,2-e]pyridin-12-amine]
- Yeast α Glucosidase Inhibition (Mean ± S.E) ([5]; single concentration screen): 9.40 ± 4.49%
- % Increase in Paw Volume [1, 6]: 76.85 ± 6.45%
- % Inhibition (paw volume) [1, 6]: 6.87 ± 4.76%
- melting point: 256 °C
- Mammalian α-glucosidase inhibitory activity (in words) [3]: significant inhibitory activity
- Mammalian α-glucosidase inhibition (Mean ± S.E) ([3]; 0.039063 mg/ml): 10.04 ± 4.42%
- Mammalian α-glucosidase inhibition (Mean ± S.E) ([3]; 0.078125 mg/ml): 26.77 ± 1.83%
- Mammalian α-glucosidase inhibition (Mean ± S.E) ([3]; 0.15625 mg/ml): 34.53 ± 2.61%
- Mammalian α-glucosidase inhibition (Mean ± S.E) ([3]; 0.3125 mg/ml): 44.41 ± 1.52%
- Mammalian α-glucosidase inhibition (Mean ± S.E) ([3]; 0.625 mg/ml): 52.44 ± 1.56%
- Mammalian α-glucosidase inhibition (Mean ± S.E) ([3]; 1.25 mg/ml): 66.57 ± 1.11%
- Mammalian α-glucosidase inhibition (Mean ± S.E) ([3]; 2.5 mg/ml): 70.69 ± 2.75%
- Mammalian α-glucosidase inhibition (Mean ± S.E) ([3]; 5 mg/ml): 75.39 ± 13.76%
- Mammalian α Glucosidase Inhibition (Mean ± S.E) [3]: 75.39%
- IC50 [3]: 528 µg/mL (≈ 1.94 mM)
- Differential count (%) Eosinophils [4]: 25%
- Differential count (%) Lymphocytes [4]: 75%
- Differential count (%) Monocytes [4]: 9%
- Total count [4]: 9

SMILES: Nc1c2c(nc3sc4c(c13)CCCCC4)CCC2 [BN-18, 1,2,3,6,7,8,9,10-Octahydrocyclohepta[4,5] thieno[2,3-b]cyclopenta [e]pyridin-11-amine]
- Yeast α-glucosidase enzyme inhibitory activity (in words) [5]: moderate inhibitory activity
- change in vivo at 100 mg/kg [1, 6]: 62.8 ± 2%
- inhibition in vivo at 100 mg/kg [1, 6]: 17.4 ± 0.27%
- melting point: 255 °C
- Mammalian α-glucosidase inhibitory activity (in words) [3]: moderate inhibitory activity
- Mammalian α Glucosidase Inhibition (Mean ± S.E) [3]: 46.22 ± 4.15%
- Differential count (%) Eosinophils [4]: 20%
- Differential count (%) Lymphocytes [4]: 70%
- Differential count (%) Monocytes [4]: 15%
- Total count [4]: 18

SMILES: COc1ccc2c(c1)c(CC(=O)O)c(C)n2C(=O)c1ccc(Cl)cc1 [Indomethacin, reference compound]
- change in vivo at 100 mg/kg [1, 6]: 41.7 ± 9.97%
- inhibition in vivo at 100 mg/kg [1, 6]: 50.1 ± 12.1%
- Inhibition of TNF-α in paw tissues [2]: moderate inhibition (p<0.05)
